{"source": "patent US6245765A", "about": "“Mesylate dihydrate salts of 5-(2-(4-(1,2-benzisothiazol-3-yl)-1-piperazinyl)-ethyl)-6-chloro-1,3-dihyd ro-2(1H)-indol-2-one (=ziprasidone), its preparation and its use as dopamine D2 antagonist” (Pfizer Inc, priority 1999, dated 2001)", "key": {"[1]": {"test": "Aqueous solubility (solubility in water)", "format": "physicochemical"}, "[2]": {"settings": "as stated in U.S. Pat. No. 5,312,925; cited from earlier work"}}, "note": "Where a name gives a salt, the structure may show the parent alone."}
{"smiles": "O=C1Cc2cc(CCN3CCN(c4nsc5ccccc45)CC3)c(Cl)cc2N1", "note": "[dihydrate (needle), 5-[2-[4-(1,2-benzisothiazol-3-yl)-1-piperazinyl]ethyl]-6-chloro-1,3-dihydro-2H-indol-2-one Methanesulfonate Dihydrate (Needle Crystals)]", "values": [{"measurement": "SOLUBILITY IN WATER", "setting": "[1]; aqueous solubility of ziprasidone mesylate polymorphs, water", "result": 1.10, "unit": "mg/mL"}]}
{"smiles": "O=C1Cc2cc(CCN3CCN(c4nsc5ccccc45)CC3)c(Cl)cc2N1", "note": "[ziprasidone hydrochloride monohydrate]", "values": [{"measurement": "hygroscopic stability (in words)", "setting": "[2]", "result": "substantially hygroscopically stable"}, {"measurement": "aqueous solubility (in words)", "setting": "[1]; qualitative statement, dihydrates compared with ziprasidone hydrochloride monohydrate", "result": "low aqueous solubility"}]}
